Series [1] concerns pMEK. Put plainly: pMEK AlphaLISA (MEK1 pS218/222), HCT116 cells, EGF stimulated. The settings on record: Homo sapiens, HCT-116, 2 h compound, EGF 30 ng/ml 15 min. In kind it is cell-based. How it is done:
(§1) Determination of pMEK IC50s
(§2) A549 cells were cultured in F12K/10% FBS media (ATCC CAT #21127022) and were seeded at 10000 cells/well and HCT116 cells were cultured in McCoy's 5A/10% FBS media (Gibco Cat #30-2007) were seeded at 15000 cells/well in 384 microplates (Corning CAT #3765). Cells were incubated overnight in a TC incubator. Compounds were serially diluted and added to cells for 2 h in a TC incubator. At the end of the 2 h EGF (R&D Systems 236-EG-200) was added at a final EGF concentration of 30 ng/ml and incubated for 15 minutes at 37° C. in a TC incubator. AlphaLisa (Perkin Elmer) was performed according to manufacturer's instructions (Perkin Elmer CAT #ALPHA.SF ULTRA MEK1 PS218/222). The percent (%) inhibition at each concentration of compound is calculated based on and relative to the AlphaLISA signal in the HPE and ZPE control wells contained within each assay plate. The ZPE control wells contain cells and DMSO as 0% inhibition, and the HPE control wells only contain cells and control compound (Sellekchem Staurosporin CAT #S1421) as 100% inhibition.
For orientation: Bead proximity is the source of the signal in Alpha formats.

In series [2] the test system is pMEK. The series is described as follows: pMEK AlphaLISA (MEK1 pS218/222), A549 cells, EGF stimulated. In kind it is cell-based. The settings on record: Homo sapiens, 2 h compound, EGF 30 ng/ml 15 min. How it is done: as §1, §2
Series [3] relates to IPC298 cells. The series is described as follows: IPC298 Cell Titer Glow assay (CTG). The settings on record: for IC50: Homo sapiens, IPC-298, 72 h, read-out: CTG IC50 (nM) Cell Line: IPC298.2. (In ATP-based viability assays light output follows the ATP content of the culture.)
Protocol: (§3) HCT116 and IPC298 Cell Titer Glow Assay (CTG)
(§4) HCT116 cells and IPC298 cells were diluted with culture medium to the desired density 500 cells/well and 40 μL of cell suspension were added into each well of 384-well cell culture plate. […] The plates were covered and stored at room temperature for 30 minutes without shaking and then the plates were transferred into a 37° C. 5% CO2 incubator overnight.
(§5) A 10 mM solution in dimethyl sulfoxide (DMSO) was prepared for each test compound. A 3 fold, 10-point dilution was prepared from the stock solution. 40 nl of each solution in 100% DMSO was added to the 384-well plate and diluted to a final 0.1% DMSO final concentration. The plates were then incubated for 72 hours (for both cell lines) at 37° C.
(§6) CellTiter-Glo® 2.0 Reagent (Promega, G9242) was removed from the refrigerator and equilibrated at room temperature (23° C.) for 60 minutes. The plates were then removed from the incubator and allowed to equilibrate to room temperature. 30 μL CellTiter-Glo® 2.0 Reagent were added to the assay plates, and spun 1 min/1000 rpm. The plates were allowed to stand for about 20 minutes before being read on Envision using a standard luminescence readout. DMSO was employed as negative control (High control, HC) and 1 uM Staurosporine was employed as positive control (Low control, LC).
(§7) The percent (%) inhibition at each concentration of compound was calculated based on the signal in the negative and positive control wells contained within each assay plate.
Series [4] has as its system HCT116 cells. Put plainly: HCT116 Cell Titer Glow assay (CTG). The settings on record: for IC50 / viability at 1000 µM: Homo sapiens, HCT-116, 72 h; for IC50: read-out: CTG IC50 (nM) Cell Line: HCT116.20; for viability at 1000 µM: read-out: CTG % cell viability 1000 uM HCT116.20, HCT116 cells, 72 hours, 1000 uM.
Protocol: as §3, §4, §5, §6, §7
Setting [5] is: percent cells remaining after treatment.

“And” between values parts separate entries of the source, which are not always exact repeats. Equal values may be shown once.

As a reminder, the IC50 is the concentration that gives 50% inhibition. As for `CNS(=O)(=O)Nc1nccc(Cc2cncc(Nc3ccc(F)cc3F)c2C)c1F` [Example 7, N-(2,4-difluorophenyl)-5-({3-fluoro-2-[(methylsulfamoyl)amino]pyridin-4-yl}methyl)-4-methylpyridin-3-amine], the IC50 in series [1] and in series [2] was less than 10 nM throughout.
For `CNS(=O)(=O)Nc1nccc(Cc2cncc(Nc3ccc(C(F)(F)F)cc3F)c2C)c1F` [Example 8, 5-({3-fluoro-2-[(methylsulfamoyl)amino]pyridin-4-yl}methyl)-N-[2-fluoro-4-(trifluoromethyl)phenyl]-4-methylpyridin-3-amine], the IC50 in series [1] and in series [2] was less than 10 nM in each case.
Consider `CNS(=O)(=O)Nc1nccc(Cc2c[n+]([O-])cc(Nc3ccc(Cl)cc3F)c2C)c1F` [Example 14, 3-[(4-chloro-2-fluorophenyl)amino]-5-({3-fluoro-2-[(methylsulfamoyl)amino]pyridin-4-yl}methyl)-4-methylpyridin-1-ium-1-olate], for which the IC50 in series [1] and in series [2] was less than 10 nM in each case.
Take `CNS(=O)(=O)Nc1nccc(Oc2cncc(Nc3ccc(Cl)cc3F)c2C)c1F` [Example 15, N-(4-chloro-2-fluorophenyl)-5-({3-fluoro-2-[(methylsulfamoyl)amino]pyridin-4-yl}oxy)-4-methylpyridin-3-amine]: the IC50 is less than 10 nM in series [3], less than 10 nM in series [1], 10 to 100 nM in series [4] and less than 10 nM in series [2].
Broadly, the viability is the share of living cells, or the viability signal relative to a control. Take `CNS(=O)(=O)Nc1nccc(C(C)c2cncc(Nc3ccc(Cl)cc3F)c2C)c1F` (centres unmarked) [Example 16]: the IC50 in series [3] was 100 to 500 nM; in series [1], 10 to 100 nM; in series [4], greater than 1000 nM; in series [2], 10 to 100 nM. In series [4] (setting [5]), the viability at 1000 µM came out at 36.5%.
Take `Cc1c(Cc2ccnc(S(C)(=O)=O)c2F)cncc1Nc1ccc(F)cc1F` [Example 17, N-(2,4-difluorophenyl)-5-[(3-fluoro-2-methanesulfonylpyridin-4-yl)methyl]-4-methylpyridin-3-amine]: the IC50 in series [3] was greater than 1000 nM; in series [1], greater than 1000 nM; in series [4], greater than 1000 nM; in series [2] it was 500 to 1000 nM. For the same compound, the “CTG % cell viability 100 uM IPC298.2” value in series [3] (IPC298 cells, 72 hours, 100 uM, percent cells remaining after treatment) is 72.73; % and 98.52%. Moreover, the “CTG % cell viability 1000 uM HCT116.20” value in series [4] (HCT116 cells, 72 hours, 1000 uM, percent cells remaining after treatment) was 83.74%. Further, the viability at 1000 µM in series [4] (setting [5]) came out at 68.2%.
In the case of `CNS(=O)(=O)Nc1nccc(Cc2cncc(Nc3ccc(Cl)cc3F)c2)c1F` [Example 18, 4-[[5-(4-chloro-2-fluoro-anilino)-3-pyridyl]methyl]-3-fluoro-N-(methylsulfamoyl)pyridin-2-amine], the IC50 in series [3] was 10 to 100 nM; in series [1], less than 10 nM; in series [4], 100 to 500 nM; in series [2] it was less than 10 nM.
For `Cc1c(Cc2ccc(S(C)(=O)=O)cc2F)cncc1Nc1ccc(Cl)cc1F` [Example 20, N-(4-chloro-2-fluoro-phenyl)-5-[(2-fluoro-4-methylsulfonyl-phenyl)methyl]-4-methyl-pyridin-3-amine], the IC50 in series [1] and in series [2] was greater than 1000 nM each time.
On to `CNS(=O)(=O)Nc1nccc(Cc2cncc(Nc3ccc(Cl)cc3F)n2)c1F` [Example 21, N-(4-chloro-2-fluoro-phenyl)-6-[[3-fluoro-2-(methylsulfamoylamino)-4-pyridyl]methyl]pyrazin-2-amine], for which the IC50 in series [3] is 500 to 1000 nM; in series [1] it was 10 to 100 nM; in series [4], greater than 1000 nM; in series [2] it was 10 to 100 nM.
Regarding `Cc1c(Cc2ccnc([S+](C)[O-])c2F)cncc1Nc1ccc(Br)cc1F` (centres unmarked) [Example 22], the IC50 in series [3] is 10 to 100 nM; in series [1], less than 10 nM; in series [4] it was 100 to 500 nM; in series [2], less than 10 nM.
For the compound `CNS(=O)(=O)Nc1nccc(Cc2cncc(Nc3ccc(OC)cc3F)c2C)c1F` [Example 23, 5-({3-fluoro-2-[(methylsulfamoyl)amino]pyridin-4-yl}methyl)-N-(2-fluoro-4-methoxyphenyl)-4-methylpyridin-3-amine], the IC50 is less than 10 nM in series [1], 10 to 100 nM in series [4] and less than 10 nM in series [2].
For `CNS(=O)(=O)Nc1ccc(Cc2cncc(Nc3ccc(Cl)cc3F)c2C)cc1OC` [Example 25, N-(4-chloro-2-fluoro-phenyl)-5-[[3-methoxy-4-(methylsulfamoylamino)phenyl]methyl]-4-methyl-pyridin-3-amine], the IC50 in series [1] and in series [2] was greater than 1000 nM throughout.
With `CNS(=O)(=O)Nc1nccc(Cc2cncc(Oc3ncc(Cl)cc3F)c2C)c1F` [Example 29, {[4-({5-[(5-chloro-3-fluoropyridin-2-yl)oxy]-4-methylpyridin-3-yl}methyl)-3-fluoropyridin-2-yl]sulfamoyl}(methyl)amine], the IC50 in series [1] and in series [2] was 10 to 100 nM each time.
Regarding `C=CCOc1cncc(Cc2ccnc(NS(=O)(=O)NC)c2F)c1C` [Example 30, 4-[(5-allyloxy-4-methyl-3-pyridyl)methyl]-3-fluoro-N-(methylsulfamoyl)pyridin-2-amine], the half-inhibitory concentration (IC50) in series [1] and in series [2] was 10 to 100 nM throughout.
In the case of `CNS(=O)(=O)Nc1nccc(Cc2cncc(-c3ncccc3F)c2C)c1F` [Example 31, 3-fluoro-4-[[5-(3-fluoro-2-pyridyl)-4-methyl-3-pyridyl]methyl]-N-(methylsulfamoyl)pyridin-2-amine], the IC50 in series [1] and in series [2] was greater than 1000 nM throughout.
As to `CNS(=O)(=O)Nc1nccc(Cc2cncc(-c3ncc(Cl)cc3F)c2C)c1F` [Example 32, 4-[[5-(5-chloro-3-fluoro-2-pyridyl)-4-methyl-3-pyridyl]methyl]-3-fluoro-N-(methylsulfamoyl)pyridin-2-amine], the IC50 in series [1] and in series [2] was greater than 1000 nM throughout.
As to `CNS(=O)(=O)Nc1nccc(Cc2cncc(OCc3ncccc3F)c2C)c1F` [Example 34, {[3-fluoro-4-({5-[(3-fluoropyridin-2-yl)methoxy]-4-methylpyridin-3-yl}methyl)pyridin-2-yl]sulfamoyl}(methyl)amine], the values for the IC50 in series [1] and in series [2] were greater than 1000 nM and 500 to 1000 nM, respectively.
The matching figures for `CNS(=O)(=O)Nc1nccc(Cc2cncc(N(C)c3ccc(Cl)cc3F)c2C)c1F` [Example 36, N-(4-chloro-2-fluorophenyl)-5-({3-fluoro-2-[(methylsulfamoyl)amino]pyridin-4-yl}methyl)-N,4-dimethylpyridin-3-amine]: less than 10 nM and less than 10 nM.
As to `CNS(=O)(=O)Nc1nccc(Cc2cncc(Oc3ccc(C4CC4)cc3F)c2C)c1F` [Example 99, 4-[[5-(4-cyclopropyl-2-fluoro-phenoxy)-4-methyl-3-pyridyl]methyl]-3-fluoro-N-(methylsulfamoyl)pyridin-2-amine], the IC50 in series [3] and in series [4] was less than 10 nM in each case.
Take `CNS(=O)(=O)Nc1nccc(Oc2cncc(Oc3ccc(Br)cc3F)c2C)c1F` [Example 100, 4-[[5-(4-bromo-2-fluoro-phenoxy)-4-methyl-3-pyridyl]oxy]-3-fluoro-N-(methylsulfamoyl)pyridin-2-amine]: the IC50 was less than 10 nM in series [3] and 10 to 100 nM in series [4].
The corresponding values for `[2H]C([2H])([2H])c1ccc(Oc2cncc(Cc3ccnc(NS(=O)(=O)NC)c3F)c2C)c(F)c1` [Example 101, 3-fluoro-4-[[5-[2-fluoro-4-(trideuteriomethyl)phenoxy]-4-methyl-3-pyridyl]methyl]-N-(methylsulfamoyl)pyridin-2-amine] are less than 10 nM and 10 to 100 nM.
The matching figures for `CNS(=O)(=O)Nc1nccc(Oc2cncc(Oc3ccc(C4CC4)cc3F)c2C)c1F` [Example 102, 4-[[5-(4-cyclopropyl-2-fluoro-phenoxy)-4-methyl-3-pyridyl]oxy]-3-fluoro-N-(methylsulfamoyl)pyridin-2-amine]: less than 10 nM and 10 to 100 nM.
With `CNS(=O)(=O)Nc1nccc(Cc2cncc(Oc3ccc(C)c(F)c3)c2C)c1F` [Example 103, 3-fluoro-4-[[5-(3-fluoro-4-methyl-phenoxy)-4-methyl-3-pyridyl]methyl]-N-(methylsulfamoyl)pyridin-2-amine], the results for the IC50 in series [3] and in series [4] were less than 10 nM and 100 to 500 nM, respectively.
Consider `[2H]C([2H])([2H])c1ccc(Nc2cncc(Cc3ccnc(NS(=O)(=O)NC)c3F)c2C)c(F)c1` [Example 104, 3-fluoro-4-[[5-[2-fluoro-4-(trideuteriomethyl)anilino]-4-methyl-3-pyridyl]methyl]-N-(methylsulfamoyl)pyridin-2-amine], for which the IC50 in series [3] and in series [4] was less than 10 nM each time.
